{"source": "patent US4209439A", "about": "“Stabilization of vinyl resins” (priority 1977, dated 1980)", "key": {"[1]": {"assay": "polarographic study of the oxidation potential (Example 30)", "type": "physicochemical", "details": "acetonitrile, lithium perchlorate; calomel electrode; in V (unit assumed)", "text": "261. Polarographic study of the oxidation potential […]\nreference electrode: a calomel electrode which contains, as junction liquid, a saturated solution of anhydrous lithium perchlorate working electrode: rotating electrode of vitreous carbon (2500 r.p.m.) counter-electrode: platinum. acetonitrile, having a water content smaller than 0.1% and not presenting any polarographic waves between -2.5 volts and +2.5 volts.\n0.1 M solution of lithium perchlorate in acetonitrile, treated and preserved on a molecular screen of 4 A. […]\nexploration amplitude: 0 to 2 V exploration speed: 10 mV/sec."}, "[2]": {"assay": "sublimation at 160° C. for 6 hours under nitrogen", "type": "physicochemical", "procedure": "A test sample of about 130 mg of the product to be investigated is introduced into a 100 cc beaker. The latter is placed in a 250 cc reactor. The temperature is kept at 160° C. by means of a thermostatically controlled oil bath for 6 hours, the atmosphere of the reactor being inert (nitrogen) in order to avoid the oxidation of the 1,4-dihydropyridine into pyridine, which is more sublimable.\nFor each dihydropyridine derivative which is investigated, the result is expressed as a percentage of sublimed product relatively to the quantity being used."}, "[3]": {"assay": "migration of stabiliser from PVC into solutions or solvents simulating foods at 50° C.", "type": "physicochemical", "procedure": "(§1) The technique as regards extraction was the following: using the formula which is given below, a batch of bottles (volume 1 liter, diameter 70 mm, height.perspectiveto.230 mm) was prepared, the said bottles being filled with a liquid simulating the foods. […] The migration of the stabiliser was judged by dosage of the pyridine present in the extractum, using the dosage method which is later described. This pyridine obviously represents the oxidised form of the extracted 1,4-dihydropyridine.\n(§2) The stabilisers are measured out in the form of their oxidation product (pyridine).\n(§3) The oxidation is made quantitative by adding a few drops of iodine to the solution. The latter is then extracted with chloroform and the chloroform is evaporated to a small residual volume. The solution obtained is then subjected to thin-film chromatography, by comparison with solutions of known concentration of the desired pyridines.\n(§4) The sensitivity threshold of this technique is 5 μg/liter.\nFor justifying the possibility of using the dihydropyridines (I) having a radical R comprising from 9 to 22 carbon atoms in applications concerned with food packaging, other than those applications relating to mineral waters, the extractability of the dihydropyridines by several solutions or solvents having the following composition, by weight, was investigated:\n(a) water-sodium chloride: 97-3\n(b) water-saccharose: 90-10\n(c) water-sodium chloride-acetic acid: 98.5-0.5-1\n(d) water-citric acid (solution at pH=5): 98-2\n(e) water-acetic acid: 97-3\n(f) water-acetic acid: 90-10\n(h) water-acetic acid: 50-50"}, "[4]": {"assay": "stabilisation of plasticised polyvinyl chloride resins: mixing at 180° C., pressing at 170° C.", "details": "for Colour stability / Thermal stability: 180° C.", "procedure": "Sheets of polyvinyl chloride, previously mixed for 5 minutes at 180° C., were pressed for 5 minutes at 170° C., and the colour stability and the heat stability after mixing, and then the coloration of the sheets after pressing, were observed.\nAs adjuvants, as well as the stabiliser to be tested, the resin in question contains wax E, dioctyl phthalate, barium stearate and cadmium stearate, in the following proportions: […]"}, "[5]": {"assay": "thermostability of rigid vinyl chloride-vinylidene chloride copolymer, ventilated oven at 210° C.", "details": "0.15 p.c.r.; Example 29", "procedure": "Rigid copolymer formula vinyl chloride-vinylidene chloride copolymer.\nPassage through a ventilated oven at 210° C.\nPassage through ventilated oven at 210° C.\nPassage in ventilated oven at 210° C."}, "[6]": {"assay": "migration of stabiliser from PVC bottles into water at 50° C.", "type": "physicochemical", "details": "water 50° C.", "procedure": "2.2--Study of the migration\nThe migration or the extractability of the stabiliser from the PVC compound under the effect of various liquids (and particularly water) stored in a plastic container is of essential importance for the use of these stabilisers in the field of food packagings.\nas §1\nThe investigation was particularly developed for water at 50° C. over a period of 2 months, because it represents the important problem regarding the packaging of mineral waters.\nFormula for the manufacture of bottles\nThe S L 2016 is a solution of zinc 2-ethyl hexanoate in a mixture of aromatic hydrocarbons boiling from 158° to 184° C.\nas §2, §3, §4"}, "[7]": {"assay": "polarographic oxidation potential (Example 31)", "type": "physicochemical", "details": "0.5 m.mole/liter; methanol/acetic acid; 35° C.", "procedure": "platinum counter-electrode and calomel electrode with filling by a saturated aqueous solution of lithium chloride.\nThe measurements were carried out in the following solvent:\n90 parts of an 0.1 M solution of lithium perchlorate in methanol, 10 parts of a 0.1 M solution of perchloric acid in acetic acid. square voltage superimposed with constant pulses of +10 millivolts, initial potential: 500 millivolts, scanning voltage: 1000 millivolts in the anode direction, oxidation at the vitreous carbon electrode (speed of rotation: 2000 r.p.m.)"}, "[8]": {"details": "resin 5: 0.1, Ba 0.375, Cd 0.375"}, "[9]": {"details": "resin 7: 0.05, Ba 0.375, Cd 0.15"}, "[10]": {"details": "resin 9: 0.05, Ba 0.375, Cd 0.05"}}}
{"smiles": "COC(=O)C1=C(C)NC(C)=C(C(=O)OC)C1", "note": "[L.28504, 2,6-Dimethyl-3,5-dicarbomethoxy-1,4-dihydropyridine]", "values": [{"measurement": "Oxidation potential", "setting": "[1]", "value": "0.74 ± 0.01"}, {"measurement": "% of sublimed product", "setting": "[2]; 160° C., 6 hours, nitrogen", "value": 34.2, "unit": "%"}, {"measurement": "sublimation", "setting": "[2]; of the quantity of product being used", "value": 34, "unit": "%"}, {"measurement": "Migration", "setting": "[3]; H2O/NaCl (97:3), 0.3, 1 month", "value": 100, "unit": "µg/L"}, {"measurement": "Migration", "setting": "[3]; H2O/NaCl (97:3), 0.3, 2 months", "value": 120, "unit": "µg/L"}, {"measurement": "Migration", "setting": "[3]; Heptane, 0.3 pcr, after 36 h", "value": 300, "unit": "µg/L"}, {"measurement": "Migration", "setting": "[3]; Heptane, 0.3 pcr, after 84 h", "value": 390, "unit": "µg/L"}, {"measurement": "Migration", "setting": "[3]; Water/C2H5OH (50:50), 0.3, 1 month", "value": 250, "unit": "µg/L"}, {"measurement": "Migration", "setting": "[3]; Water/C2H5OH (85:15), 0.3, 1 month", "value": 150, "unit": "µg/L"}, {"measurement": "Migration", "setting": "[3]; Water/C2H5OH (85:15), 0.3, 2 months", "value": 180, "unit": "µg/L"}, {"measurement": "Migration", "setting": "[3]; Water/CH3COOH (50:50), 0.3, 1 month", "value": 150, "unit": "µg/L"}, {"measurement": "Migration", "setting": "[3]; Water/CH3COOH (50:50), 0.3, 2 months", "value": 200, "unit": "µg/L"}, {"measurement": "Migration", "setting": "[3]; Water/CH3COOH (90:10), 0.3, 1 month", "value": 120, "unit": "µg/L"}, {"measurement": "Migration", "setting": "[3]; Water/CH3COOH (90:10), 0.3, 2 months", "value": 140, "unit": "µg/L"}, {"measurement": "Migration", "setting": "[3]; Water/CH3COOH (97:3), 0.3, 1 month", "value": 90, "unit": "µg/L"}, {"measurement": "Migration", "setting": "[3]; Water/CH3COOH (97:3), 0.3, 2 months", "value": 120, "unit": "µg/L"}, {"measurement": "Migration", "setting": "[3]; Water/NaCl/CH3COOH (98,5:0,5:1), 0.3, 1 month", "value": 110, "unit": "µg/L"}, {"measurement": "Migration", "setting": "[3]; Water/NaCl/CH3COOH (98,5:0,5:1), 0.3, 2 months", "value": 120, "unit": "µg/L"}, {"measurement": "Migration", "setting": "[3]; Water/Sacchrose (90:10), 0.3, 1 month", "value": 100, "unit": "µg/L"}, {"measurement": "Migration", "setting": "[3]; Water/Sacchrose (90:10), 0.3, 2 months", "value": 100, "unit": "µg/L"}, {"measurement": "Migration", "setting": "[3]; Water/citric acid (98:2), pH 5, 0.3, 1 month", "value": 110, "unit": "µg/L"}, {"measurement": "Migration", "setting": "[3]; Water/citric acid (98:2), pH 5, 0.3, 2 months", "value": 130, "unit": "µg/L"}, {"measurement": "Colour stability", "setting": "[4]; [8]", "value": 50, "unit": "min"}, {"measurement": "Thermal stability", "setting": "[4]; [8]", "value": 50, "unit": "min"}, {"measurement": "Colour stability", "setting": "[4]; [9]", "value": 45, "unit": "min"}, {"measurement": "Thermal stability", "setting": "[4]; [9]", "value": 55, "unit": "min"}, {"measurement": "Colour stability", "setting": "[4]; [10]", "value": 35, "unit": "min"}, {"measurement": "Thermal stability", "setting": "[4]; [10]", "value": 50, "unit": "min"}, {"measurement": "basic shade and thermal stability", "setting": "[4]; words", "value": "substantially improves the basic shade and clearly increases the thermal stability"}, {"measurement": "thermostabilisation of copolymer versus 2-phenyl indole", "setting": "[5]", "value": "better result than 0.3 p.c.r. of 2-phenyl indole"}, {"measurement": "Migration", "setting": "[6]; 0.15 pct, 1 month", "value": 70, "unit": "µg/L"}, {"measurement": "Migration", "setting": "[6]; 0.15 pct, 2 months", "value": 80, "unit": "µg/L"}, {"measurement": "Migration", "setting": "[6]; 0.15 pct, 10 days", "value": 15, "unit": "µg/L"}, {"measurement": "Migration", "setting": "[6]; 0.15 pct, 20 days", "value": 40, "unit": "µg/L"}, {"measurement": "Migration", "setting": "[6]; 0.30 pct, 1 month", "value": 120, "unit": "µg/L"}, {"measurement": "Migration", "setting": "[6]; 0.30 pct, 2 months", "value": 120, "unit": "µg/L"}, {"measurement": "Migration", "setting": "[6]; 0.30 pct, 10 days", "value": 70, "unit": "µg/L"}, {"measurement": "Migration", "setting": "[6]; 0.30 pct, 20 days", "value": 100, "unit": "µg/L"}, {"measurement": "Oxidation potential", "setting": "[7]", "value": 850, "unit": "millivolts"}]}
